According to PubChem BioAssay (NCI):
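Five compound concentrations were applied to cells in 96-well plates for 48 hours; endpoints were derived by simple linear interpolation of the resulting dose-response curve. TGI: concentration producing complete growth inhibition.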

Columns and labels:
Test in all cases: NCI tumour cell line growth inhibition, 48 h
786-0 renal = test system: 786-0 renal
A498 renal = test system: A498 renal
A549 NSCLC = test system: A549 NSCLC
ACHN renal = test system: ACHN renal
BT-549 breast = test system: BT-549 breast
CCRF-CEM leukemia = test system: CCRF-CEM leukemia
COLO 205 colon = test system: COLO 205 colon
DU-145 prostate = test system: DU-145 prostate
EKVX NSCLC = test system: EKVX NSCLC
HCC-2998 colon = test system: HCC-2998 colon
HCT-116 colon = test system: HCT-116 colon
HCT-15 colon = test system: HCT-15 colon
HL-60(TB) leukemia = test system: HL-60(TB) leukemia
HOP-62 NSCLC = test system: HOP-62 NSCLC
HOP-92 NSCLC = test system: HOP-92 NSCLC
HS 578T breast = test system: HS 578T breast
HT29 colon = test system: HT29 colon
IGROV1 ovarian = test system: IGROV1 ovarian
K-562 leukemia = test system: K-562 leukemia
KM12 colon = test system: KM12 colon
M14 melanoma = test system: M14 melanoma
MALME-3M melanoma = test system: MALME-3M melanoma
MDA-MB-231 breast = test system: MDA-MB-231 breast
MDA-MB-435 = test system: MDA-MB-435
MDA-N = test system: MDA-N
MOLT-4 leukemia = test system: MOLT-4 leukemia
NCI-H226 lung = test system: NCI-H226 lung
NCI-H23 lung = test system: NCI-H23 lung
NCI-H460 lung = test system: NCI-H460 lung
NCI-H522 lung = test system: NCI-H522 lung
OVCAR-3 ovarian = test system: OVCAR-3 ovarian
OVCAR-4 ovarian = test system: OVCAR-4 ovarian
OVCAR-5 ovarian = test system: OVCAR-5 ovarian
OVCAR-8 ovarian = test system: OVCAR-8 ovarian
PC-3 prostate = test system: PC-3 prostate
RPMI-8226 leukemia = test system: RPMI-8226 leukemia
RXF 393 renal = test system: RXF 393 renal
SF-268 CNS = test system: SF-268 CNS
SF-295 CNS = test system: SF-295 CNS
SF-539 CNS = test system: SF-539 CNS
SK-MEL-2 melanoma = test system: SK-MEL-2 melanoma
SK-MEL-28 melanoma = test system: SK-MEL-28 melanoma
SK-MEL-5 melanoma = test system: SK-MEL-5 melanoma
SK-OV-3 ovarian = test system: SK-OV-3 ovarian
SNB-19 CNS = test system: SNB-19 CNS
SNB-75 CNS = test system: SNB-75 CNS
SW-620 colon = test system: SW-620 colon
T-47D breast = test system: T-47D breast
TK-10 renal = test system: TK-10 renal
U251 CNS = test system: U251 CNS
UACC-257 melanoma = test system: UACC-257 melanoma
UACC-62 melanoma = test system: UACC-62 melanoma
UO-31 renal = test system: UO-31 renal

Work on `Cn1c(N)nc(-c2ccc(Cl)cc2)c1SSc1c(-c2ccc(Cl)cc2)nc(N)n1C` yielded a TGI (786-0 renal) of 3.43 µM, a TGI (A498 renal) of 27.8 µM and a TGI (A549 NSCLC) of 27.2 µM. For the same molecule, the TGI (ACHN renal) was 5.14 µM, the TGI (BT-549 breast) was 5.19 µM and the TGI (CCRF-CEM leukemia) was 5.05 µM. For the same molecule, the TGI (COLO 205 colon) was 3.81 µM, the TGI (DU-145 prostate) was 25.4 µM and the TGI (EKVX NSCLC) was 6.47 µM. It also gave a TGI (HCC-2998 colon) of 20.7 µM, a TGI (HCT-116 colon) of 13.4 µM and a TGI (HCT-15 colon) of 3.44 µM. It also gave a TGI (HL-60(TB) leukemia) of 2920 nM, a TGI (HOP-62 NSCLC) of 7.69 µM and a TGI (HOP-92 NSCLC) of 3.7 µM. For the same molecule, the TGI (HS 578T breast) was over 100 µM, the TGI (HT29 colon) was 4.74 µM and the TGI (IGROV1 ovarian) was 9.21 µM. For the same molecule, the TGI (K-562 leukemia) was 6.2 µM, the TGI (KM12 colon) was 3.46 µM and the TGI (M14 melanoma) was 3.78 µM. The TGI (MALME-3M melanoma) was 4.57 µM, the TGI (MDA-MB-231 breast) was 2880 nM and the TGI (MDA-MB-435) was 3.54 µM. The TGI (MDA-N) was 3.34 µM, the TGI (MOLT-4 leukemia) was over 100 µM and the TGI (NCI-H226 lung) was 83.5 µM. It also gave a TGI (NCI-H23 lung) of 3.37 µM, a TGI (NCI-H460 lung) of 15.3 µM and a TGI (NCI-H522 lung) of 3.62 µM. It also gave a TGI (OVCAR-3 ovarian) of 3.54 µM, a TGI (OVCAR-4 ovarian) of 3.21 µM and a TGI (OVCAR-5 ovarian) of 3.26 µM. It also gave a TGI (OVCAR-8 ovarian) of 5.81 µM, a TGI (PC-3 prostate) of 3.38 µM and a TGI (RPMI-8226 leukemia) of 3.3 µM. For the same molecule, the TGI (RXF 393 renal) was 5.47 µM, the TGI (SF-268 CNS) was 7.1 µM and the TGI (SF-295 CNS) was 21.4 µM. The TGI (SF-539 CNS) was 3.33 µM, the TGI (SK-MEL-2 melanoma) was 32.1 µM and the TGI (SK-MEL-28 melanoma) was 3.76 µM. For the same molecule, the TGI (SK-MEL-5 melanoma) was 3.2 µM, the TGI (SK-OV-3 ovarian) was 27.4 µM and the TGI (SNB-19 CNS) was 27.8 µM. For the same molecule, the TGI (SNB-75 CNS) was 20.8 µM, the TGI (SW-620 colon) was 4.03 µM and the TGI (T-47D breast) was 5.06 µM. It also gave a TGI (TK-10 renal) of 3.32 µM, a TGI (U251 CNS) of 4.19 µM and a TGI (UACC-257 melanoma) of 3.52 µM. The TGI (UACC-62 melanoma) was 5.03 µM and the TGI (UO-31 renal) was 3.24 µM.
